Results on 2 molecules are retold here after patent publication EP1025226B1, “DNA ENCODING A HUMAN PROTON-GATED ION CHANNEL AND USES THEREOF” (McGill University, priority 1997, dated 1999).

For assay [1], the target named is T1, human non-inactivating proton-gated ion channel hASIC3 (homomeric channels), SEQ ID No. 2 (Homo sapiens, UniProt Q9UHC3).
T1 sequence (Q9UHC3 1-531): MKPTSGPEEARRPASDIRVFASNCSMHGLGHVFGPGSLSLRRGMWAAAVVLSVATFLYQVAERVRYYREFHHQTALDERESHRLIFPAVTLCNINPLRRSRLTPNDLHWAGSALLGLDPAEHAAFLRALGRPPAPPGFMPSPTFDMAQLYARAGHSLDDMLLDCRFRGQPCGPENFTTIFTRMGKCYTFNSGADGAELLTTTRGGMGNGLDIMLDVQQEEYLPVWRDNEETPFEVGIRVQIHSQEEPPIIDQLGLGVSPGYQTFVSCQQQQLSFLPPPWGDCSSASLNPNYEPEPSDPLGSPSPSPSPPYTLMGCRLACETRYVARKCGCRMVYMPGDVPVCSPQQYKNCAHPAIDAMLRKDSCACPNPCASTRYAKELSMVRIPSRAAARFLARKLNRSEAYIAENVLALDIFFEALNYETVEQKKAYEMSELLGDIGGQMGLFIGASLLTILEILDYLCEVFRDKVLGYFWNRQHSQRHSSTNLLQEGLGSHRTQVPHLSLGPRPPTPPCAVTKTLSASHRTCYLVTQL
Put plainly: Two-electrode voltage clamp of proton-induced currents in Xenopus oocytes expressing the channel. The class given is cell-based. The conditions noted are these: for remaining activity at 100 µM: 100 µM amiloride, currents activated by pH 4.0, mean +/- SEM (n= 17); for inhibition at 100 µM: co-application of 100 micro M amiloride with pH 4.0, biphasic response, hASIC3 in Xenopus oocytes. As to the method:
Oocytes surgically removed from adult Xenopus laevis were treated for 2 h at room temperature with type II collagenase (Gibco-BRL) in Barth's solution under constant agitation. Selected oocytes at stage IV-V were defolliculated manually before nuclear micro-injections (Bertrand et al., 1991) of 5 ng of hASlC3 in pcDNA3 vector. After 2-4 days of expression at 19^-C in Barth's solution containing 50Êg/ml gentamycin, currents were recorded in the two-electrode voltage clamp configuration using an OC-725B amplifier (Warner Instruments). Whole cell currents were acquired and digitized at 500 Hz on a Macintosh IIci computer with an A/D NB-MIO16XL interface (National Instruments) then recorded traces were post-filtered at 100 Hz in Axograph (Axon Instruments). Agonist, amiloride and wash solutions were prepared in a modified Ringer's solution containing 115 mM NaCl, 2.5 mM KCI, 1.8 mM CaCl2 in 5-20 mM HEPES (Sigma) buffer adjusted with NaOH or HCl at pH 2 to 8 and applied on oocytes by constant perfusion (10-12 ml/min) at room temperature. Mean values ± SEM corresponded to measurements from a minimum of 5 oocytes.
(In general: In two-electrode clamp one electrode senses voltage and the other passes current.)

In assay [2] the target is hASIC3 (human non-inactivating amiloride-sensitive proton-gated ion channel subunit) (human). Put plainly: cell-based or functional assay.
In assay [3] the target is rat P2x2 (ATP-gated ion channel subunit) (rat) (UniProt P49653). The assay is described as follows: cell-based or functional assay.

Where two headings read alike, the source gives them in different places.

Chain of rat P2x2 (ATP-gated ion channel subunit) (rat) (P49653 whole entry): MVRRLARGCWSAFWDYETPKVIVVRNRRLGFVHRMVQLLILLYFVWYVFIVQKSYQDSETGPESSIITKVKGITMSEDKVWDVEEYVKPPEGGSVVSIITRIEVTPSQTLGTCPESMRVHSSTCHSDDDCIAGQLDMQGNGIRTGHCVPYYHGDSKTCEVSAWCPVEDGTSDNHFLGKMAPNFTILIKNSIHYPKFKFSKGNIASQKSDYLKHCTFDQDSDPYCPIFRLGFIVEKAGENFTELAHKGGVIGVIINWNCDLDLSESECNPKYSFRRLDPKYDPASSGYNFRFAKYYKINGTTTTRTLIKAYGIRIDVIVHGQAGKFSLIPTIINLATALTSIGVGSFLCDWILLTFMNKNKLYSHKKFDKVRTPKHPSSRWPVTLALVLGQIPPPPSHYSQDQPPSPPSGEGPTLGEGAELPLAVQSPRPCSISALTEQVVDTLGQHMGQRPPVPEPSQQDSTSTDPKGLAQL

On to `N=C(N)NC(=O)c1nc(Cl)c(N)nc1N` [amiloride], for which the remaining activity at 100 µM in assay [1] (read-out: residual peak currents during amiloride application, fast component, expressed as percent of controls) was 37.2 ± 6.4%; in assay [1] (read-out: residual peak currents during amiloride application, sustained component, expressed as percent of controls), 72 ± 3.8%. Also, the inhibition at 100 µM is 62.8 ± 6.5% in assay [1] (read-out: blockade of the fast current by amiloride) and 28.7 ± 4.6% in assay [1] (read-out: blockade of the slow current by amiloride).

For “hASIC3 (human non-inactivating amiloride-sensitive proton-gated ion channel subunit)”, the non-inactivating cationic current induced by strong acid in Xenopus oocytes injected with the hASIC3 clone alone in assay [2] is 4 pH. In assay [3], this molecule registered an inward currents in Xenopus oocytes coinjected with hASIC3 and P2x2 (two-electrode voltage clamp), activating pH of 6.5 pH; a non-inactivating cation current induced by weak acid in Xenopus oocytes coinjected with hASIC3 clone and rat P2x2 clone of 6.5 pH.
